Experimental data published in US20260207573A1, “EFFECT OF RIVOCERANIB ON CYTOCHROME P450 ENZYME SUBSTRATES” (ELEVAR THERAPEUTICS, INC., priority 2022, published 2026).

How the values were obtained:
CYP3A = assay: Example 2 phase 1 drug-drug interaction study, rivoceranib 700 mg QD + 5+1 cocktail: midazolam probe; set-up: AUC(0-t), Mean (CV %), 5 + 1 cocktail alone / AUC(0-t), Geometric LSM, 5 + 1 cocktail alone / AUC(0-t), Mean (CV %), Rivoceranib plus 5 + 1 cocktail / AUC(0-t), Geometric LSM, Rivoceranib plus 5 + 1 cocktail / AUC(0-∞), Mean (CV %), 5 + 1 cocktail alone / AUC(0-∞), Geometric LSM, 5 + 1 cocktail alone / AUC(0-∞), Mean (CV %), Rivoceranib plus 5 + 1 cocktail / AUC(0-∞), Geometric LSM, Rivoceranib plus 5 + 1 cocktail: unit not given beside the values; details: for AUC(0-t), Geometrical mean Ratio, % (90% CI) / AUC(0-∞), Geometrical mean Ratio, % (90% CI) / Cmax, Geometrical mean Ratio, % (90% CI): rivoceranib 700 mg QD, 100*LSM Rivoceranib Plus 5+1 Cocktail/LSM 5+1 Cocktail Alone; for AUC(0-t) / AUC(0-inf) / Cmax: human, in vivo
Method: (§1) This example describes a pharmacokinetic interaction study in healthy human volunteers dosed with 700 mg rivoceranib and a mixture of cytochrome P450 enzyme (CYP1A2, CYP2C9, CYP2C19, CYP2D6, and CYP3A) substrates.
(§2) The primary objective of the study was to evaluate the effect of rivoceranib 700 mg once daily (QD) on the pharmacokinetics (PK) of various CYP substrates to determine drug-drug interactions of rivoceranib.
(§3) This was an open-label, 2-treatment, fixed-sequence drug-drug interaction phase 1 study designed to evaluated the impact of multiple oral doses of 700 mg rivoceranib on the single-dose PK of CYP enzyme substrates administered in a 5+1 Cooperstown probe cocktail (caffeine [CYP1A2], S- and R-warfarin [CYP2C9]+vitamin K, omeprazole [CYP2C19], dextromethorphan [CYP2D6], and midazolam [CYP3A]) in healthy volunteers (N=32). On day 1, volunteers received a single dose of the 5+1 cocktail comprising 200 mg caffeine, 10 mg S- and R-warfarin with 10 mg vitamin K, 40 mg omeprazole, 30 mg dextromethorphan, and 2 mg midazolam. Blood samples were collected pre-dose on day 1 and up to 120 hours post-dose for PK analyses of the substrates in the 5+1 cocktail. On days 6 to 15, volunteers received 700 mg rivoceranib once daily for 10 consecutive days with a single dose of the 5+1 cocktail administered on day 11. Blood samples were collected pre-dose on day 11 and up to 120 hours post cocktail dosing (day 16) for PK analyses. Each dosing was under fasted conditions. There was a washout period of 5 days between day 1 dosing and the first rivoceranib dose on day 6; the 2 cocktail dosings were spaced by 10 days.

CYP3A4/5 = assay: Example 1 pharmacokinetic interaction study, rivoceranib 200 mg + Cooperstown 5+1 cocktail: midazolam probe; details: for AUC(0-t), Geometric Mean Ratio, (Cooperstown Cocktail + Rivoceranib)/Cooperstown Cocktail Alone / AUC(0-∞), Geometric Mean Ratio, (Cooperstown Cocktail + Rivoceranib)/Cooperstown Cocktail Alone / Cmax, Geometric Mean Ratio, (Cooperstown Cocktail + Rivoceranib)/Cooperstown Cocktail Alone: rivoceranib 200 mg daily, D11 vs D1
CYP2C19 = CYP2C19 (Homo sapiens, UniProt P33261); details: in vivo, po
Chain of CYP2C19 (P33261 whole entry): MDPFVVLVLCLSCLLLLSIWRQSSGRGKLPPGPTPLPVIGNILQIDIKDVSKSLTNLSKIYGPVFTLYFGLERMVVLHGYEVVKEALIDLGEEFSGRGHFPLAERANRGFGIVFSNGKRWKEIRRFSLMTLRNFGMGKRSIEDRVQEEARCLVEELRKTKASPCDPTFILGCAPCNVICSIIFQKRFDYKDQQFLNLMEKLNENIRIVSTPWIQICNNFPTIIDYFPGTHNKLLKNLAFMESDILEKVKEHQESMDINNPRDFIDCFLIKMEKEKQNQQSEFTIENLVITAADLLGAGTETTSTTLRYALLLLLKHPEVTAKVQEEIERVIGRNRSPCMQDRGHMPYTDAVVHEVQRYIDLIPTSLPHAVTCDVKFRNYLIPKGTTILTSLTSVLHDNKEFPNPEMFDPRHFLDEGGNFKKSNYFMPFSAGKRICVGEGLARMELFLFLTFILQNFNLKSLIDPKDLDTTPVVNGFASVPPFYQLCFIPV

CYP2D6 [1] = target: T1, CYP2D6 (Homo sapiens, UniProt P10635); assay: Example 2 phase 1 drug-drug interaction study, rivoceranib 700 mg QD + 5+1 cocktail: dextromethorphan probe; details: for AUC(0-t) / AUC(0-inf) / Cmax: human, in vivo, healthy volunteers; for AUC(0-t), Geometrical mean Ratio, % (90% CI) / AUC(0-∞), Geometrical mean Ratio, % (90% CI) / Cmax, Geometrical mean Ratio, % (90% CI): rivoceranib 700 mg QD, 100*LSM Rivoceranib Plus 5+1 Cocktail/LSM 5+1 Cocktail Alone
T1 sequence (P10635 whole entry): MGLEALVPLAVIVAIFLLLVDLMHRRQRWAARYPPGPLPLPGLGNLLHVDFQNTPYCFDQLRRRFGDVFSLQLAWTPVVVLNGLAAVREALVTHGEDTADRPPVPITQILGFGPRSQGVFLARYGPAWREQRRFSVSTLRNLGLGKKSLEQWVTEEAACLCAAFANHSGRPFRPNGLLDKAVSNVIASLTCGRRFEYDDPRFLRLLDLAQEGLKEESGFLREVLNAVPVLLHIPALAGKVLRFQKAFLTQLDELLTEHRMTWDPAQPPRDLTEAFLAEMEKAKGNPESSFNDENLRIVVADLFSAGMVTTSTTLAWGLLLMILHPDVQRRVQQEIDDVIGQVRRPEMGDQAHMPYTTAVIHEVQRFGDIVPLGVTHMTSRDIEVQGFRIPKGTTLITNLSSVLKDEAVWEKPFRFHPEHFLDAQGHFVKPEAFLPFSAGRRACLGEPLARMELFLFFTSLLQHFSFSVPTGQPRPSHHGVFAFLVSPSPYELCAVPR
Method: as §1, §2, §3

CYP2D6 [2] = target: T1, CYP2D6; assay: Example 1 pharmacokinetic interaction study, rivoceranib 200 mg + Cooperstown 5+1 cocktail: dextromethorphan probe; details: for AUC(0-t), Geometric Mean Ratio, (Cooperstown Cocktail + Rivoceranib)/Cooperstown Cocktail Alone / AUC(0-∞), Geometric Mean Ratio, (Cooperstown Cocktail + Rivoceranib)/Cooperstown Cocktail Alone / Cmax, Geometric Mean Ratio, (Cooperstown Cocktail + Rivoceranib)/Cooperstown Cocktail Alone: rivoceranib 200 mg daily, D11 vs D1
[3] = healthy volunteers, 5+1 cocktail day 11 + rivoceranib 700 mg QD days 6-15
[4] = healthy volunteers, single oral 5+1 cocktail dose day 1, fasted
[5] = Geometric LSM, Rivoceranib plus 5 + 1 cocktail, 5+1 cocktail day 11 + rivoceranib 700 mg QD days 6-15
[6] = Mean (CV %), Rivoceranib plus 5 + 1 cocktail, 5+1 cocktail day 11 + rivoceranib 700 mg QD days 6-15
[7] = po, Geometric LSM, 5 + 1 cocktail alone, single oral 5+1 cocktail dose day 1, fasted
[8] = po, Mean (CV %), 5 + 1 cocktail alone, single oral 5+1 cocktail dose day 1, fasted
[9] = rivoceranib 200 mg once daily, oral substrate
[10] = Geometric LSM, Rivoceranib plus 5 + 1 cocktail, healthy volunteers, 5+1 cocktail day 11 + rivoceranib 700 mg QD days 6-15
[11] = Mean (CV %), Rivoceranib plus 5 + 1 cocktail, healthy volunteers, 5+1 cocktail day 11 + rivoceranib 700 mg QD days 6-15
[12] = po, 2 mg, Geometric LSM, 5 + 1 cocktail alone, healthy volunteers, single oral 5+1 cocktail dose day 1, fasted
[13] = po, 2 mg, Mean (CV %), 5 + 1 cocktail alone, healthy volunteers, single oral 5+1 cocktail dose day 1, fasted

OCc1ncc2n1-c1ccc(Cl)cc1C(c1ccccc1F)=NC2 [1-hydroxymidazolam]
AUC(0-t), Geometric LSM, Rivoceranib plus 5 + 1 cocktail (CYP3A; [3]): 13.89 | AUC(0-t), Mean (CV %), Rivoceranib plus 5 + 1 cocktail (CYP3A; [3]): 14.37 | AUC(0-∞), Geometric LSM, Rivoceranib plus 5 + 1 cocktail (CYP3A; [3]): 15.16 | AUC(0-∞), Mean (CV %), Rivoceranib plus 5 + 1 cocktail (CYP3A; [3]): 15.67 | Cmax, Geometric LSM, Rivoceranib plus 5 + 1 cocktail (CYP3A; [3]): 4.639 ng/mL | Cmax, Mean (CV %), Rivoceranib plus 5 + 1 cocktail (CYP3A; [3]): 4.797 ng/mL | AUC(0-t), Geometric LSM, 5 + 1 cocktail alone (CYP3A; [4]): 9.643 | AUC(0-t), Mean (CV %), 5 + 1 cocktail alone (CYP3A; [4]): 9.643 | AUC(0-∞), Geometric LSM, 5 + 1 cocktail alone (CYP3A; [4]): 10.21 | AUC(0-∞), Mean (CV %), 5 + 1 cocktail alone (CYP3A; [4]): 10.18 | Cmax, Geometric LSM, 5 + 1 cocktail alone (CYP3A; [4]): 4.115 ng/mL | Cmax, Mean (CV %), 5 + 1 cocktail alone (CYP3A; [4]): 4.115 ng/mL | AUC(0-t), Geometrical mean Ratio, % (90% CI) (CYP3A): 144.05% | AUC(0-∞), Geometrical mean Ratio, % (90% CI) (CYP3A): 148.48% | Cmax, Geometrical mean Ratio, % (90% CI) (CYP3A): 112.73% | AUC(0-t), Geometric Mean Ratio, (Cooperstown Cocktail + Rivoceranib)/Cooperstown Cocktail Alone (CYP3A4/5): 1.2627 | AUC(0-∞), Geometric Mean Ratio, (Cooperstown Cocktail + Rivoceranib)/Cooperstown Cocktail Alone (CYP3A4/5): 1.1355 | Cmax, Geometric Mean Ratio, (Cooperstown Cocktail + Rivoceranib)/Cooperstown Cocktail Alone (CYP3A4/5): 0.8913

COc1ccc2nc([S+]([O-])Cc3ncc(CO)c(OC)c3C)[nH]c2c1 (stereo not drawn) [5-hydroxyomeprazole]
AUC(0-t), Geometric LS Mean, Cooperstown Cocktail Alone (CYP2C19): 6.6476 | AUC(0-∞), Geometric LS Mean, Cooperstown Cocktail Alone (CYP2C19): 6.6678 | Cmax, Geometric LS Mean, Cooperstown Cocktail Alone (CYP2C19): 5.3867

COc1ccc2c(c1)[C@]13CCCC[C@@H]1[C@H](C2)N(C)CC3 [dextromethorphan]
AUC(0-t) (CYP2D6 [1]; [5]): 27.1 ng·h/mL | AUC(0-t) (CYP2D6 [1]; [6]): 23.7 ng·h/mL | AUC(0-inf) (CYP2D6 [1]; [5]): 36.2 ng·h/mL | AUC(0-inf) (CYP2D6 [1]; [6]): 33.2 ng·h/mL | Cmax (CYP2D6 [1]; [5]): 2.78 ng/mL | Cmax (CYP2D6 [1]; [6]): 2.53 ng/mL | AUC(0-t) (CYP2D6 [1]; [7]): 10.4 ng·h/mL | AUC(0-t) (CYP2D6 [1]; [8]): 10.4 ng·h/mL | AUC(0-inf) (CYP2D6 [1]; [7]): 13.3 ng·h/mL | AUC(0-inf) (CYP2D6 [1]; [8]): 14 ng·h/mL | Cmax (CYP2D6 [1]; [7]): 1.4 ng/mL | Cmax (CYP2D6 [1]; [8]): 1.4 ng/mL | increase in exposure with rivoceranib (CYP2D6 [1]; rivoceranib 700 mg): 2- to 2.7 fold | AUC(0-t), Geometrical mean Ratio, % (90% CI) (CYP2D6 [1]): 259.87% | AUC(0-∞), Geometrical mean Ratio, % (90% CI) (CYP2D6 [1]): 272.50% | Cmax, Geometrical mean Ratio, % (90% CI) (CYP2D6 [1]): 198.80% | AUC(0-t), Geometric Mean Ratio, (Cooperstown Cocktail + Rivoceranib)/Cooperstown Cocktail Alone (CYP2D6 [2]): 2.5448 | AUC(0-∞), Geometric Mean Ratio, (Cooperstown Cocktail + Rivoceranib)/Cooperstown Cocktail Alone (CYP2D6 [2]): 2.6650 | Cmax, Geometric Mean Ratio, (Cooperstown Cocktail + Rivoceranib)/Cooperstown Cocktail Alone (CYP2D6 [2]): 1.9039 | increase in AUC0-∞ on coadministration of rivoceranib relative to Cooperstown 5+1 cocktail only (CYP2D6 [2]; [9]): 144% | increase in Cmax on coadministration of rivoceranib relative to Cooperstown 5+1 cocktail only (CYP2D6 [2]; [9]): 70%

CN1CC[C@@]23CCCC[C@@H]2[C@@H]1Cc1ccc(O)cc13 [dextrorphan]
AUC(0-t) (CYP2D6 [1]; [5]): 33.7 ng·h/mL | AUC(0-t) (CYP2D6 [1]; [6]): 34.5 ng·h/mL | AUC(0-inf) (CYP2D6 [1]; [5]): 37.1 ng·h/mL | AUC(0-inf) (CYP2D6 [1]; [6]): 37.8 ng·h/mL | Cmax (CYP2D6 [1]; [5]): 4.74 ng/mL | Cmax (CYP2D6 [1]; [6]): 4.88 ng/mL | AUC(0-t) (CYP2D6 [1]; [7]): 26.1 ng·h/mL | AUC(0-t) (CYP2D6 [1]; [8]): 26.1 ng·h/mL | AUC(0-inf) (CYP2D6 [1]; [7]): 27.9 ng·h/mL | AUC(0-inf) (CYP2D6 [1]; [8]): 27.9 ng·h/mL | Cmax (CYP2D6 [1]; [7]): 4.66 ng/mL | Cmax (CYP2D6 [1]; [8]): 4.66 ng/mL | AUC(0-t), Geometrical mean Ratio, % (90% CI) (CYP2D6 [1]): 129.07% | AUC(0-∞), Geometrical mean Ratio, % (90% CI) (CYP2D6 [1]): 133.22% | Cmax, Geometrical mean Ratio, % (90% CI) (CYP2D6 [1]): 101.70% | AUC(0-t), Geometric Mean Ratio, (Cooperstown Cocktail + Rivoceranib)/Cooperstown Cocktail Alone (CYP2D6 [2]): 1.1509 | AUC(0-∞), Geometric Mean Ratio, (Cooperstown Cocktail + Rivoceranib)/Cooperstown Cocktail Alone (CYP2D6 [2]): 1.1104 | Cmax, Geometric Mean Ratio, (Cooperstown Cocktail + Rivoceranib)/Cooperstown Cocktail Alone (CYP2D6 [2]): 0.8950

Cc1ncc2n1-c1ccc(Cl)cc1C(c1ccccc1F)=NC2 [midazolam]
AUC(0-t) (CYP3A; [10]): 75.2 ng·h/mL | AUC(0-t) (CYP3A; [11]): 75.5 ng·h/mL | AUC(0-inf) (CYP3A; [10]): 82.1 ng·h/mL | AUC(0-inf) (CYP3A; [11]): 82.5 ng·h/mL | Cmax (CYP3A; [10]): 25.7 ng/mL | Cmax (CYP3A; [11]): 25.7 ng/mL | AUC(0-t) (CYP3A; [12]): 28.1 ng·h/mL | AUC(0-t) (CYP3A; [13]): 28.1 ng·h/mL | AUC(0-inf) (CYP3A; [12]): 29.7 ng·h/mL | AUC(0-inf) (CYP3A; [13]): 29.7 ng·h/mL | Cmax (CYP3A; [12]): 10.8 ng/mL | Cmax (CYP3A; [13]): 10.8 ng/mL | increase in exposure following coadministration with rivoceranib (CYP3A; rivoceranib 700 mg): 2.4- to 2.8 fold | AUC(0-t), Geometrical mean Ratio, % (90% CI) (CYP3A): 267.59% | AUC(0-∞), Geometrical mean Ratio, % (90% CI) (CYP3A): 276.27% | Cmax, Geometrical mean Ratio, % (90% CI) (CYP3A): 237.88% | AUC(0-t), Geometric Mean Ratio, (Cooperstown Cocktail + Rivoceranib)/Cooperstown Cocktail Alone (CYP3A4/5): 1.5573 | AUC(0-∞), Geometric Mean Ratio, (Cooperstown Cocktail + Rivoceranib)/Cooperstown Cocktail Alone (CYP3A4/5): 1.4451 | Cmax, Geometric Mean Ratio, (Cooperstown Cocktail + Rivoceranib)/Cooperstown Cocktail Alone (CYP3A4/5): 1.1509 | increase in AUC0-∞ following coadministration with rivoceranib (CYP3A4/5; [9]): 65% | increase in Cmax following coadministration with rivoceranib (CYP3A4/5; [9]): 16%
